The source made the active and inactive calls.
Columns and labels:
Genome polyprotein = Genome polyprotein (dengue virus type 2, UniProt P29990); test: Dengue-2 NS5 methyltransferase inhibitors, primary screen, biochemical, confirmation dose response (AID 588689); type: functional
[1] = growth suppression of PTEN-null colon cells, dose response, cell-based, HCT116 PTEN knockout (AID 1047); type: functional;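 further: HCT116 colon tumor cells with PTEN knocked out; cells exposed to compound for 60 hours before readout; potency for loss of cell viability measured by luminescence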
Vero [2] = test: cells; type: functional; settings: Chlorocebus sabaeus
[3] = NIH-3T3 fibroblast cytotoxicity, dose response, cytotoxicity control, cell-based, fluorescence, Alamar Blue, secondary assay (AID 2327); type: functional;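 further: NIH-3T3 mouse fibroblasts cultured with fluconazole at 8 µg/mL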
[4] = growth suppression of beta-catenin-knockout colon cells, dose response, cell-based, HCT116, human colon tumor (AID 1045); type: functional;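 further: HCT116 colon tumor cells with beta catenin knocked out; cells exposed to compound for 60 hours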
[5] = molecular target: T1, Ubiquitin-conjugating enzyme E2 N (Homo sapiens, UniProt P61088); type: functional;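 further: Dose-response confirmation in a TR-FRET assay detecting UBC13-driven polyubiquitin chain formation, inhibition measured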
T1 sequence (P61088 whole entry): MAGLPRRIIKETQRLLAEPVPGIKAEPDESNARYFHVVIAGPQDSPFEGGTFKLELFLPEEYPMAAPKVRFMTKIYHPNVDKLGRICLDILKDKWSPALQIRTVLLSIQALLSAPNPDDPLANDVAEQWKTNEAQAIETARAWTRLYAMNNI

[6] = molecular target: Eukaryotic translation initiation factor 4E (Mus musculus, UniProt P63073); test: eIF4E–eIF4G protein interaction inhibitors, dose response, biochemical, TR-FRET (AID 855); type: functional;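 further: potency for disrupting eIF4E binding to eIF4GI seen as loss of FRET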
Sequence of Eukaryotic translation initiation factor 4E (P63073 whole entry): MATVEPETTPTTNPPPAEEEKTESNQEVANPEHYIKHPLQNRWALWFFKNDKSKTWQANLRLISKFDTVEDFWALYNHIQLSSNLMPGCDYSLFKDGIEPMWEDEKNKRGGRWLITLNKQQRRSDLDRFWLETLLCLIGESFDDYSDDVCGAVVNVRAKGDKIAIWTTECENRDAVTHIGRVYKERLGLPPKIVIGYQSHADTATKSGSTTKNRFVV

[7] = molecular target: Heat shock protein HSP 90-alpha (Homo sapiens, UniProt P07900); type: functional, organism-based
[8] = molecular target: T2, Apoptotic protease-activating factor 1 (Homo sapiens, UniProt O14727); type: functional
T2 sequence (O14727 whole entry): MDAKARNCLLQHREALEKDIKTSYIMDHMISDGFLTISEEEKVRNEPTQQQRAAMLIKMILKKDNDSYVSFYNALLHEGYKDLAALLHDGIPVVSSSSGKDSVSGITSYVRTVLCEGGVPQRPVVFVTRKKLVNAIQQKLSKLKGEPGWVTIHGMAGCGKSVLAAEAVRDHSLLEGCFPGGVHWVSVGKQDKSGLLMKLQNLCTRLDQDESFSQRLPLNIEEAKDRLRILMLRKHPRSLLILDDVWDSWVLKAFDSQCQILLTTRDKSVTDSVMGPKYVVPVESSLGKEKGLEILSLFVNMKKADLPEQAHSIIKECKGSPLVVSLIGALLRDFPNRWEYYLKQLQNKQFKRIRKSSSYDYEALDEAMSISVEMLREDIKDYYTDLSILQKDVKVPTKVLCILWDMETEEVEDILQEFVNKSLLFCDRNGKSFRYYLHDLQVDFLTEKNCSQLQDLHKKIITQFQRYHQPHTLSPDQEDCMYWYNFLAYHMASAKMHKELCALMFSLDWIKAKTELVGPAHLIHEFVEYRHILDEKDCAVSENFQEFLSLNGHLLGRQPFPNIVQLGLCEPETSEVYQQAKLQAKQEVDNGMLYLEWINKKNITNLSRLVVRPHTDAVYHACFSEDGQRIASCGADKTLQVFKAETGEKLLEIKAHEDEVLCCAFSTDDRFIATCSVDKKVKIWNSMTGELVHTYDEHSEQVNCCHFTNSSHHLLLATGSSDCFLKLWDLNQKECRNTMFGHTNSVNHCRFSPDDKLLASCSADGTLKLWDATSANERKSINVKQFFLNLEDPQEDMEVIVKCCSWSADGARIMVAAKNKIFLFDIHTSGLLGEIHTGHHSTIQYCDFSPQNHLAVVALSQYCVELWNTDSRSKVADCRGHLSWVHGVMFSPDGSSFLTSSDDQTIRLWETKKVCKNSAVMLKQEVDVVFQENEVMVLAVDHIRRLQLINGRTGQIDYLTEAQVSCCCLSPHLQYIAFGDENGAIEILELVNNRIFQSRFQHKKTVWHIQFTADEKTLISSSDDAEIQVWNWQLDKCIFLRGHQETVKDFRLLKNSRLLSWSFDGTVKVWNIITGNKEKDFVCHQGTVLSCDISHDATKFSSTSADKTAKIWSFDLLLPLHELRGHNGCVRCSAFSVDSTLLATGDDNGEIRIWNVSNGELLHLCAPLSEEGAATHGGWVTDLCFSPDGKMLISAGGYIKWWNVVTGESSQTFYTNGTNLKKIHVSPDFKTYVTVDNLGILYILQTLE

[9] = cytotoxicity in HEK-293T cells, dose response, cytotoxicity control for TCR NF-kB inhibitor project, luminescence, T-cell screen hits (AID 489026); type: functional, cell-based;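 further: cells exposed to compound about 14 hours before the viability readout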
[10] = C. albicans growth with fluconazole, confirmation, fluorescence, retest (AID 2467); type: functional, cell-based
INS1 = test: beta cell apoptosis inhibitors, cytokine rescue, dose response, luminescence, retest (AID 449756); type: functional, cell-based; settings: Rattus norvegicus;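 further: cell death triggered by IL-1 beta plus TNF-alpha plus IFN-gamma mixture; protective hits raise ATP signal compared with cytokine alone wells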
[11] = cytotoxicity toward DRD oncogenic fibroblasts, dose response, cell-based, non-viral oncogenic, luminescence (AID 1934); type: functional; settings: Homo sapiens
BJ [12] = test: cytotoxicity toward BJ-TERT-LT-ST fibroblasts, dose response, cell-based, RAS-independent, luminescence (AID 1935); type: functional; settings: Homo sapiens;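 further: BJ fibroblasts immortalized with TERT plus LT and ST oncogenes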
[13] = molecular target: Beta-2 adrenergic receptor (Homo sapiens, UniProt P07550); test: beta2AR agonists driving receptor internalization, dose response, cell-based, FAP fluorogen, flow cytometry, cherry pick 1 (AID 588763); type: functional
Sequence of Beta-2 adrenergic receptor (P07550 whole entry): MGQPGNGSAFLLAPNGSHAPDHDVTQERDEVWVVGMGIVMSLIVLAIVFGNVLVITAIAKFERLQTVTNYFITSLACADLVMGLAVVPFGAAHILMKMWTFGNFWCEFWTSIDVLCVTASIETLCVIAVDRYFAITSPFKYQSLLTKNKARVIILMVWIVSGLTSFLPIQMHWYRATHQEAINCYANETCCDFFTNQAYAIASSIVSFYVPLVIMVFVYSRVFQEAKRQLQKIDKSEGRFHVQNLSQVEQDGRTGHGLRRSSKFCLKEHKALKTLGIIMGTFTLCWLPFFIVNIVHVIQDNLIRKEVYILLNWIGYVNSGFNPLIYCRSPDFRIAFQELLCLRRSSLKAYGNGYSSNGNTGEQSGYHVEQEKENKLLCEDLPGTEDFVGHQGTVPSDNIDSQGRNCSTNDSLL

BJ [14] = test: cells; type: functional, cell-based; settings: Homo sapiens
Vero [15] = test: cells; type: functional, cell-based; settings: Chlorocebus sabaeus
BJ [16] = test: cytotoxicity toward BJ-TERT fibroblasts, dose response, cell-based, RAS-independent, luminescence (AID 1933); type: functional; settings: Homo sapiens
[17] = molecular target: T3, High affinity choline transporter 1 (Homo sapiens, UniProt Q9GZV3); test: CHT inhibitors, dose response, cell-based, 5-point CRC, membrane potential dye (AID 504840); type: functional
T3 sequence (Q9GZV3 whole entry): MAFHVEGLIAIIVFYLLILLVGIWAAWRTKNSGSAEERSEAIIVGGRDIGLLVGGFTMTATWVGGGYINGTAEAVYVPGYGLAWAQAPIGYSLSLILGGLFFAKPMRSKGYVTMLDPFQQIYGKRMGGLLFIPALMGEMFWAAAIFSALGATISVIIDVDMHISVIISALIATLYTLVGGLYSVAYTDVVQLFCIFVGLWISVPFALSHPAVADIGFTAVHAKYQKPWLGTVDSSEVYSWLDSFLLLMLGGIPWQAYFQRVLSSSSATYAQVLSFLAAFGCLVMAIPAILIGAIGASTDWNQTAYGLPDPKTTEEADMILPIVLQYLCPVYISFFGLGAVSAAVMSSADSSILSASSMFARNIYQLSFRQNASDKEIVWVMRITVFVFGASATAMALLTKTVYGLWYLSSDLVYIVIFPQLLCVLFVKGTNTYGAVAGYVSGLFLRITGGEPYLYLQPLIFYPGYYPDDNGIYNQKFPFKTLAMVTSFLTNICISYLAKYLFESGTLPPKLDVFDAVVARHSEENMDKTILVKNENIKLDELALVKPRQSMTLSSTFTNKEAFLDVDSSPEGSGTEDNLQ

Coagulation factor XII = molecular target: T4, Coagulation factor XII (Homo sapiens, UniProt P00748); type: functional;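 further: activated factor XIIa alpha cleaving a fluorogenic AMC peptide substrate; inhibitor potency from loss of enzyme activity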
T4 sequence (P00748 whole entry): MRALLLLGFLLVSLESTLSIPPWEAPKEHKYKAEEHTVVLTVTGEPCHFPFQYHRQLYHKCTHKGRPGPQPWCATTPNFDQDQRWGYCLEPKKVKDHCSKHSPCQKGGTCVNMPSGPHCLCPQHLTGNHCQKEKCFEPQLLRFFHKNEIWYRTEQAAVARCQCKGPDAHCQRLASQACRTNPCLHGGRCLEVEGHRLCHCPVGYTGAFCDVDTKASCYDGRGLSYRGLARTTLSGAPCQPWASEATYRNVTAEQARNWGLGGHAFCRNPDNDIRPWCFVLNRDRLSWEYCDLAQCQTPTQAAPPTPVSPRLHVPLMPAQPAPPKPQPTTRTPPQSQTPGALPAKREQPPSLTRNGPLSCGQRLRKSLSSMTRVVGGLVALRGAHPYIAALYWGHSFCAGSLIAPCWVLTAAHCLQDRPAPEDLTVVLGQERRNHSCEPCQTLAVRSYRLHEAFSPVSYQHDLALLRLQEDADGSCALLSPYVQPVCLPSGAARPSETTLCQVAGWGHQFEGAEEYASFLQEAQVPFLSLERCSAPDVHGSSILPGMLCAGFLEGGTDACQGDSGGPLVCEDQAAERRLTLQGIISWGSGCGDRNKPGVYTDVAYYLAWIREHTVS

Cytochrome P450 2C19 = Cytochrome P450 2C19 (Homo sapiens, UniProt P33261); test: Cytochrome panel assay with activity outcomes. Panel member name: p450-cyp2c19 Compounds with AC50 equal or less than 10 uM are considered active; type: functional; settings: read-out: AC50
Sequence of Cytochrome P450 2C19 (P33261 whole entry): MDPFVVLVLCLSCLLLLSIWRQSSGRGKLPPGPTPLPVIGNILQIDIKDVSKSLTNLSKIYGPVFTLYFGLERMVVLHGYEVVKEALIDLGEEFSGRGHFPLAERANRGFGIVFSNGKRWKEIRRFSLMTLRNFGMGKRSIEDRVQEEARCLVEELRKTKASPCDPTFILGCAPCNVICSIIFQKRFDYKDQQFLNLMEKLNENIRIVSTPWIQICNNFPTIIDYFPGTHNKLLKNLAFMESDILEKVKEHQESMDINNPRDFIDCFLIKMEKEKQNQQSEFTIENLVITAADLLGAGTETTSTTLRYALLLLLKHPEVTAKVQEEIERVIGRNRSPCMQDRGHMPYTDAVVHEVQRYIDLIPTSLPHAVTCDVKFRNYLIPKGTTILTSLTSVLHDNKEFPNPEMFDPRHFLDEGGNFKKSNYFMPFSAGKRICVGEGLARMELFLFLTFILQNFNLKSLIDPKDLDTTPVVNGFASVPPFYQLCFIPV

Cytochrome P450 1A2 = molecular target: T5, Cytochrome P450 1A2 (Homo sapiens, UniProt P05177);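 further: PubChem cytochrome P450 panel assay, CYP1A2 panel member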
T5 sequence (P05177 whole entry): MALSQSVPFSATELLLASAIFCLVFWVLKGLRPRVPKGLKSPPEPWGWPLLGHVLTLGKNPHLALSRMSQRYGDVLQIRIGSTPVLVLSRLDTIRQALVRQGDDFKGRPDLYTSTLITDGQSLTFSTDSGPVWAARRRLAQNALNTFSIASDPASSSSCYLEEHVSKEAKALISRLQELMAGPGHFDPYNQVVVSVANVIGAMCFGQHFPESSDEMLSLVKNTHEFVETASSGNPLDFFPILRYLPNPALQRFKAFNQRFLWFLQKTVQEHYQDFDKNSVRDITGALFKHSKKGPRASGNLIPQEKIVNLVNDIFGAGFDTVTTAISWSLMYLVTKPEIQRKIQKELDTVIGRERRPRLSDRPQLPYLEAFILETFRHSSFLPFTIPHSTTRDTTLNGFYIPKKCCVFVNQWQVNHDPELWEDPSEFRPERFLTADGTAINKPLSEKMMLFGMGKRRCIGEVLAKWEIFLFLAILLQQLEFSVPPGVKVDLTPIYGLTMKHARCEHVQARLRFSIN

Sequence of Genome polyprotein (P29990 2492-3391 limits assumed): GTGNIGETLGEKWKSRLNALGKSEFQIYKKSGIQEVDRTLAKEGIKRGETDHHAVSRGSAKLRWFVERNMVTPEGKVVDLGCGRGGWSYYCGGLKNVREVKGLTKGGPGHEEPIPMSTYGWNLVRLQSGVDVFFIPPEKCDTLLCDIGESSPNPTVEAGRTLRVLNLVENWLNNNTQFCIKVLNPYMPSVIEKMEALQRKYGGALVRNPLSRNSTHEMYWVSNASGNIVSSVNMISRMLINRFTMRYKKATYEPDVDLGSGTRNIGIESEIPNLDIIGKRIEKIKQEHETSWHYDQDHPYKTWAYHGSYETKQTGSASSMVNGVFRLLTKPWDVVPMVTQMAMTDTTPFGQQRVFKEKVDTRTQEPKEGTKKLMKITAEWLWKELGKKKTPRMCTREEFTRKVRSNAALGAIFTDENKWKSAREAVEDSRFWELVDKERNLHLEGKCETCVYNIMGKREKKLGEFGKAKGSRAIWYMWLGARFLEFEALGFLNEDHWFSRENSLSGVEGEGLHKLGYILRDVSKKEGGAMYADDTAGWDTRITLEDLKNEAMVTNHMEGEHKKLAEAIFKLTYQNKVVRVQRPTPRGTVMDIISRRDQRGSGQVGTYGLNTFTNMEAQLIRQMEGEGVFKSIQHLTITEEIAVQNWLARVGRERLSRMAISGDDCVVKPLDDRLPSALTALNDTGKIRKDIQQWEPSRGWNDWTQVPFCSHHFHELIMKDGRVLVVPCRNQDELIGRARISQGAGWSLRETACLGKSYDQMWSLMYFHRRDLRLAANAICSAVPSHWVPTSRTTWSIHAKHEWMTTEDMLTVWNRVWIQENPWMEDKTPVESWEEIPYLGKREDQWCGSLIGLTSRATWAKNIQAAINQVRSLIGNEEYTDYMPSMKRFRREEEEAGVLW

**Q.** For `COc1ccccc1N(O)C1CC(=O)N(c2ccc(F)cc2)C1=O` (configuration not stated), which IC50 (Genome polyprotein) is on record?
**A.** The IC50 was 62 µM (active).

**Q.** For `CCCCCCCCCCCCCCCC[n+]1cccc(C(=O)N(CC)CC)c1`, which EC50 [1] is on record?
**A.** The EC50 was 6.46 µM (active).

**Q.** What about the CC50 (Vero [2]) of the same molecule?
**A.** The CC50 was 18.1 µM (active).

**Q.** And the EC50 [3]?
**A.** Its EC50 is 41.8 µM (active).

**Q.** And the EC50 [4]?
**A.** Its EC50 is 5.92 µM (active).

**Q.** What about the IC50 [5] of the same molecule?
**A.** Its IC50 is > 20 µM (inactive).

**Q.** And the IC50 [6]?
**A.** The IC50 was 28.9 µM (active).

**Q.** What about the AC50 [7] of the same molecule?
**A.** Its AC50 is 2.89 µM (active).

**Q.** And the IC50 [8]?
**A.** The IC50 was 21.5 µM (active).

**Q.** What about the IC50 [9] of the same molecule?
**A.** Its IC50 is 24.8 µM (inactive).

**Q.** What about the EC50 [10] of the same molecule?
**A.** Its EC50 is > 38 µM (not active).

**Q.** And the AC50 (INS1)?
**A.** The AC50 was 4.92 µM (active).

**Q.** What does the source list for `N#CC1=C(N)OC2=C(CCc3ccccc32)C1c1ccccc1` (configuration not stated)?
**A.** EC50 [11]: 0.61 µM (active); EC50 (BJ [12]): 0.689 µM (inconclusive); EC50 [13]: 52.5 µM (inactive); CC50 (Vero [2]): 0.17 µM (active); EC50 (BJ [14]): 13.5 µM (active); IC50 (Vero [15]): > 25 µM (active); EC50 (BJ [16]): 0.645 µM (inconclusive)

**Q.** For `CCOC(=O)c1nc(NNC(=O)c2ccc([N+](=O)[O-])cc2)sc1C`, which EC50 [3] is on record?
**A.** The EC50 was 30.9 µM (active).

**Q.** What about the IC50 [17] of the same molecule?
**A.** The IC50 was 9.91 µM (active).

**Q.** And the EC50 [10]?
**A.** Its EC50 is 2.62 µM (active).

**Q.** And the AC50 (INS1)?
**A.** Its AC50 is 2.7 µM (active).

**Q.** Which IC50 (Coagulation factor XII) does the source give for `Cc1cc(OC(=O)c2ccc(Cl)cc2Cl)nc(C)n1` here?
**A.** Its IC50 is > 50 µM (inconclusive).

**Q.** And the AC50 (Cytochrome P450 2C19)?
**A.** Its AC50 is 28.2 µM (inconclusive).

**Q.** And the AC50 (Cytochrome P450 1A2)?
**A.** Its AC50 is 28.2 µM (inconclusive).

**Q.** With `O=C(C(c1ccccc1)c1ccccc1)N1CCN(c2ccccn2)CC1` as the molecule, how does the EC50 [13] read?
**A.** The EC50 was 0.0379 µM (active).

From ChEMBL document CHEMBL1201862, “PubChem BioAssay data set” (2004)
